Data published in ChEMBL document CHEMBL1201862, “PubChem BioAssay data set” (2004).
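Five compound concentrations were applied to cells in 96-well plates for 48 hours; endpoints were derived by simple linear interpolation of the resulting dose-response curve. Abbreviation: GI50, concentration required for 50% inhibition of growth.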 Calls of active or inactive are those of the source. No stated cut-off is given here; in the data, active = GI50 up to about 1.1 µM and inactive = higher. Non-standard residues stand in square brackets, D forms with d. Residues, ends and D or L forms follow the SMILES beside them. ξ: configuration not given here. *: point of attachment. ξNMeF = CNC(Cc1ccccc1)C(=O)O; NMeV = CN[C@H](C(=O)O)C(C)C; Boc = CC(C)(C)OC(=O)*; OBn = c1ccc(CO*)cc1

Legend:
Experiment in all cases: NCI anticancer screen, dose series, 48 h
DMS-114 = test system: DMS-114
M19-MEL = test system: M19-MEL
KM-20L2 = test system: KM-20L2
DLD-1 = test system: DLD-1
DMS-273 = test system: DMS-273
RXF 631 = test system: RXF 631
BT-549 = test system: BT-549
T47D = test system: T47D
MDA-MB-231 = test system: MDA-MB-231

Row | SMILES | GI50 (DMS-114) | GI50 (M19-MEL) | GI50 (KM-20L2) | GI50 (DLD-1) | GI50 (DMS-273) | GI50 (RXF 631) | GI50 (BT-549) | GI50 (T47D) | GI50 (MDA-MB-231)
1 | COP(=O)(OC)C(=O)N1N(c2ccc([N+](=O)[O-])cc2)C(=O)C(C)NC1(NNc1ccc([N+](=O)[O-])cc1)P(=O)(OC)OC (stereo unspecified) | > 100 µM (inactive) | > 100 µM (inactive) | > 100 µM (inactive) | > 100 µM (inactive) | > 100 µM (inactive) |  |  |  | 
2 | CC(=O)c1ccc(NC(=O)C(=O)CC(=O)c2sc(-n3nc(-c4ccccc4)cc3-c3ccccc3)nc2C)cc1 | > 100 µM (inactive) | > 100 µM (inactive) | > 100 µM (inactive) | > 100 µM (inactive) | > 100 µM (inactive) | > 100 µM (inactive) |  |  | 
3 | Cc1ccc(S(=O)(=O)NNC(=O)c2sc(-c3nc(C)c(C(=O)NNS(=O)(=O)c4ccc(C)cc4)s3)nc2C)cc1 |  | > 100 µM (inactive) | > 100 µM (inactive) | 73.8 µM (inactive) |  |  |  |  | 
4 | O=C(N/N=C/c1ccccc1O)N/N=C/c1ccccc1O | > 100 µM (inactive) | > 100 µM (inactive) | > 100 µM (inactive) | > 100 µM (inactive) | > 100 µM (inactive) | > 100 µM (inactive) |  |  | 
5 | CN1C(=O)CC2(C)c3cc(C=O)ccc3N(C)C12 (stereo unspecified) | > 100 µM (inactive) | > 100 µM (inactive) | > 100 µM (inactive) | > 100 µM (inactive) |  | > 100 µM (inactive) |  |  | 
6 | CCCCN1C(=O)NC(Cc2ccccc2)C1=O (stereo unspecified) | > 100 µM (inactive) | > 100 µM (inactive) | > 100 µM (inactive) | > 100 µM (inactive) | > 100 µM (inactive) |  |  |  | 
7 | COc1nc(NC2OCC(OC(C)=O)C(OC(C)=O)C2OC(C)=O)c(/N=C(\C)C(C)=O)c(=O)n1C (stereo unspecified) | > 100 µM (inactive) |  | > 100 µM (inactive) | > 100 µM (inactive) | > 100 µM (inactive) | > 100 µM (inactive) |  |  | 
8 | CCN(CC)CCNc1ccc2ncn3c4ccccc4c(=O)c1c23 | 5.07 µM (inactive) | 3.63 µM (inactive) | 3.85 µM (inactive) | 3.5 µM (inactive) |  |  |  |  | 
9 | O=c1cc(/C=C/c2ccccc2)c2ccc(O/C(=C\c3ccccc3)c3nc4ccccc4c(=O)o3)cc2o1 | 15.1 µM (inactive) | 25.3 µM (inactive) | 31.5 µM (inactive) | 26.7 µM (inactive) | 23 µM (inactive) | 28.1 µM (inactive) |  |  | 
10 | O=C(N/C(=C\c1ccccc1Cl)c1nc2ccccc2[nH]1)c1ccccc1 | 35 µM (inactive) | 33 µM (inactive) | 22.8 µM (inactive) | 30.2 µM (inactive) |  | 26.5 µM (inactive) |  |  | 
11 | CCOC(=O)NC(=O)c1cn(CCCCCOC(=O)NCCCCCCNC(=O)OCCCCCn2cc(C(=O)NC(=O)OCC)c(=O)[nH]c2=O)c(=O)[nH]c1=O | > 100 µM (inactive) | > 100 µM (inactive) | > 100 µM (inactive) | > 100 µM (inactive) | > 100 µM (inactive) |  |  |  | 
12 | Cc1cc2c(c(C(N)=O)c1C)-c1cccc(F)c1C2=O | > 100 µM (inactive) | > 100 µM (inactive) | > 100 µM (inactive) | > 100 µM (inactive) | > 100 µM (inactive) |  |  |  | 
13 | Cc1nc2nn(Cc3ccccc3)cc2c(=O)o1 | > 100 µM (inactive) | > 100 µM (inactive) | > 100 µM (inactive) | > 100 µM (inactive) | > 100 µM (inactive) | > 100 µM (inactive) |  |  | 
14 | COP1(=O)Oc2ccccc2C(=O)C(C(F)(F)F)(C(F)(F)F)O1 (stereo unspecified) | > 100 µM (inactive) | > 100 µM (inactive) | > 100 µM (inactive) | > 100 µM (inactive) | > 100 µM (inactive) |  |  |  | 
15 | CC1c2c(Cl)nc3ccccc3c2Oc2c1c(Cl)nc1ccccc21 | 66.1 µM (inactive) | > 100 µM (inactive) | > 100 µM (inactive) | > 100 µM (inactive) | 53.2 µM (inactive) |  |  |  | 
16 | COC(=O)C1CCC(N2C(=O)CCC2C(=O)OC)=N1 (stereo unspecified) |  | > 100 µM (inactive) | > 100 µM (inactive) | > 100 µM (inactive) | > 100 µM (inactive) | > 100 µM (inactive) |  |  | 

Row | SMILES | GI50 (DMS-114) | GI50 (M19-MEL) | GI50 (KM-20L2) | GI50 (DLD-1) | GI50 (DMS-273) | GI50 (RXF 631) | GI50 (BT-549) | GI50 (T47D) | GI50 (MDA-MB-231)
17 | O=c1[nH]c2c(O)cccc2c2cc3c(c(O)c12)OCO3 [NARCIPRIMINE] | 19.1 µM (inactive) | 20.3 µM (inactive) | 12.8 µM (inactive) | 14.6 µM (inactive) | 18.7 µM (inactive) |  |  |  | 
18 | CC1=C(/C=C/C(C)=C/C=C/C(C)=C/C=C/C=C(C)/C=C/C=C(C)/C=C/C=C(C)/C=C/C=C(\C)C(=O)O)C(C)(C)CCC1 | > 100 µM (inactive) |  | > 100 µM (inactive) | > 100 µM (inactive) | > 100 µM (inactive) | > 100 µM (inactive) |  |  | 
19 | CC1(C)C2=CCCC(=O)[C@@]2(C)CC[C@@H]1O | > 100 µM (inactive) | > 100 µM (inactive) | > 100 µM (inactive) | > 100 µM (inactive) | > 100 µM (inactive) |  |  |  | 
20 | N#CCCN(CCC#N)c1ccc(/C=C(\NC(=O)c2cc([N+](=O)[O-])ccc2Cl)C(=O)Nc2ccccc2)cc1 | 55 µM (inactive) | > 100 µM (inactive) | > 100 µM (inactive) | 18.5 µM (inactive) | 54.2 µM (inactive) |  |  |  | 
21 | COC(=O)C[C@](O)(CCC(C)(C)O)C(=O)O[C@@H]1C(OC)=C[C@]23CCCN2CCc2cc4c(cc2[C@H]13)OCO4 [HARRINGTONINE] | 0.0152 µM (active) | 0.107 µM (active) | 0.0843 µM (active) | 0.121 µM (active) | 0.0288 µM (active) |  |  |  | 
22 | CC(C)[C@@H](C(=O)N(C)[C@H](C(=O)N1CCC[C@H]1C(=O)OCc1ccccc1)C(C)C)N(C)C(=O)C(Cc1ccccc1)N(C)C(=O)[C@H](NC(=O)OC(C)(C)C)C(C)C (stereo partly specified) (Boc-[dV][ξNMeF][NMeV][NMeV]P-OBn) | 20.6 µM (inactive) | > 31.6 µM (inactive) | > 31.6 µM (inactive) | > 31.6 µM (inactive) | > 31.6 µM (inactive) |  |  |  | 
23 | Brc1ccc2c(c1)C1C(CO2)C(c2ccccc2)=NN1c1ccccc1 (stereo unspecified) | > 100 µM (inactive) | > 100 µM (inactive) | > 100 µM (inactive) | > 100 µM (inactive) | > 100 µM (inactive) |  |  |  | 
24 | COC(=O)CCC(=O)Nc1cc(Cl)ccc1Cl | > 100 µM (inactive) | > 100 µM (inactive) | > 100 µM (inactive) | > 100 µM (inactive) |  |  |  |  | 
25 | COC(=O)[C@]1(C)C(OC)=CC(=O)C2C1[C@H]1CCC[C@@H]21 (stereo partly specified) | > 100 µM (inactive) | > 100 µM (inactive) | > 100 µM (inactive) | > 100 µM (inactive) |  |  |  |  | 
26 | CN1Nc2ccccc2CC1=O | > 100 µM (inactive) | > 100 µM (inactive) | > 100 µM (inactive) | > 100 µM (inactive) | > 100 µM (inactive) |  |  |  | 
27 | O=C(CC(=O)c1ccccc1NC1=Cc2ccccc2C(=O)C1=O)C(=O)NC1=C(Cl)C(=O)c2ccccc2C1=O | 1.68 µM (inactive) | 0.225 µM (active) | 9.77 µM (inactive) | 2.38 µM (inactive) | 2.34 µM (inactive) | 4.37 µM (inactive) | 3.76 µM (inactive) | 10.9 µM (inactive) | 2.42 µM (inactive)
28 | COC(=O)C(=O)C(C(=O)C(=O)Nc1ccc(Cl)cc1C)c1nc2ccc(C(=O)c3ccccc3)cc2nc1O (stereo unspecified) | 36 µM (inactive) | > 100 µM (inactive) | > 100 µM (inactive) | 55.8 µM (inactive) | 63.4 µM (inactive) | > 100 µM (inactive) |  |  | 
29 | CC(C)(C)NNC(=O)/C(=C/c1ccc(Oc2ccc(Cl)c(Cl)c2)cc1)NC(=O)c1ccccc1 | 18.5 µM (inactive) | > 100 µM (inactive) | 95.3 µM (inactive) | 31.1 µM (inactive) | 21.5 µM (inactive) | 34 µM (inactive) |  |  | 
30 | Cc1ccc(-c2cc(=O)c3cc(C)c(C)c(C(=O)O)c3o2)cc1C | > 100 µM (inactive) | > 100 µM (inactive) | > 100 µM (inactive) | > 100 µM (inactive) | > 100 µM (inactive) | > 100 µM (inactive) |  |  | 
31 | COC1OCC(O)C(NC(=O)N(C)N=O)C1O (stereo unspecified) | > 100 µM (inactive) | > 100 µM (inactive) | > 100 µM (inactive) | > 100 µM (inactive) | > 100 µM (inactive) |  |  |  | 
32 | CC(=O)OCC1OC(n2c(-c3ccc(C)cc3)cc(-c3ccccc3)c(C#N)c2=O)C(OC(C)=O)C(OC(C)=O)C1OC(C)=O (stereo unspecified) | > 100 µM (inactive) | > 100 µM (inactive) | > 100 µM (inactive) | > 100 µM (inactive) |  | > 100 µM (inactive) |  |  | 
